Assay results taken from patent US12077503B2, “Substituted cyclic amides and their use as herbicides” (FMC CORPORATION, priority 2015, dated 2024).

Experiments:
Format in all cases: in vivo
[1] = system: ivy-leaved morning glory (Ipomoea hederacea); test: Test G Pre-Emergence Protocol; settings: Ipomoea, pre-emergence, 312 h, evaluated after 13 days; for pest or weed control at 15.625 g/ha: 15.625 g ai/ha; for pest or weed control at 15.625 g/ha / pest or weed control at 250 g/ha: read-out: Morningglory, Ivy-leaved damage rating (100=total damage to plant; 0=no damage to plant); for pest or weed control at 62.5 g/ha: 62.5 g ai/ha, 100=total damage to plant, 0=no damage to plant, read-out: Morningglory, Ivy-leaved damage rating; for pest or weed control at 250 g/ha: 250 g ai/ha
In short: (§1)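 Test compound in 0.5% Tween 20 acetone/water (50:50) was applied at three rates (15.625, 62.5, 250 g/ha) to soil sown one day earlier. After 13 days plants were scored for injury, where 0 means unaffected and 100 means completely damaged.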

[2] = system: barnyardgrass (Echinochloa crus-galli); test: Test G Pre-Emergence Protocol; settings: Echinochloa crus-galli, pre-emergence, 312 h, evaluated after 13 days; for pest or weed control at 15.625 g/ha: 15.625 g ai/ha; for pest or weed control at 15.625 g/ha / pest or weed control at 250 g/ha: read-out: Barnyardgrass damage rating (100=total damage to plant; 0=no damage to plant); for pest or weed control at 62.5 g/ha: 62.5 g ai/ha, 100=total damage to plant, 0=no damage to plant, read-out: Barnyardgrass damage rating; for pest or weed control at 250 g/ha: 250 g ai/ha
In short: as §1

[3] = system: velvetleaf (Abutilon theophrasti); test: Test G Pre-Emergence Protocol; settings: Abutilon theophrasti, pre-emergence, 312 h, evaluated after 13 days; for pest or weed control at 15.625 g/ha: 15.625 g ai/ha; for pest or weed control at 15.625 g/ha / pest or weed control at 250 g/ha: read-out: Velvetleaf damage rating (100=total damage to plant; 0=no damage to plant); for pest or weed control at 62.5 g/ha: 62.5 g ai/ha, 100=total damage to plant, 0=no damage to plant, read-out: Velvetleaf damage rating; for pest or weed control at 250 g/ha: 250 g ai/ha
In short: as §1

[4] = system: redroot pigweed (Amaranthus retroflexus); test: Test G Pre-Emergence Protocol; settings: Amaranthus retroflexus, pre-emergence, 312 h, evaluated after 13 days; for pest or weed control at 15.625 g/ha: 15.625 g ai/ha; for pest or weed control at 15.625 g/ha / pest or weed control at 250 g/ha: read-out: Pigweed, Redroot damage rating (100=total damage to plant; 0=no damage to plant); for pest or weed control at 62.5 g/ha: 62.5 g ai/ha, 100=total damage to plant, 0=no damage to plant, read-out: Pigweed, Redroot damage rating; for pest or weed control at 250 g/ha: 250 g ai/ha
In short: as §1

corn (Zea mays) [5] = test: Test G Pre-Emergence Protocol; settings: Zea mays, pre-emergence, 312 h, evaluated after 13 days; for plant injury at 15.625 g/ha: 15.625 g ai/ha; for plant injury at 15.625 g/ha / plant injury at 250 g/ha: read-out: Corn damage rating (100=total damage to plant; 0=no damage to plant); for plant injury at 62.5 g/ha: 62.5 g ai/ha, 100=total damage to plant, 0=no damage to plant, read-out: Corn damage rating; for plant injury at 250 g/ha: 250 g ai/ha
In short: as §1

[6] = system: giant foxtail (Setaria faberi); test: Test G Pre-Emergence Protocol; settings: Setaria faberi, pre-emergence, 312 h, evaluated after 13 days; for pest or weed control at 15.625 g/ha: 15.625 g ai/ha; for pest or weed control at 15.625 g/ha / pest or weed control at 250 g/ha: read-out: Foxtail, Giant damage rating (100=total damage to plant; 0=no damage to plant); for pest or weed control at 62.5 g/ha: 62.5 g ai/ha, 100=total damage to plant, 0=no damage to plant, read-out: Foxtail, Giant damage rating; for pest or weed control at 250 g/ha: 250 g ai/ha
In short: as §1

[7] = system: ivy-leaved morning glory (Ipomoea hederacea); test: Test G Post-Emergence Protocol; settings: Ipomoea, post-emergence, 312 h, read-out: Morningglory, Ivy-leaved damage rating; for pest or weed control at 15.625 g/ha: 15.625 g ai/ha, evaluated after 13 days (100=total damage to plant; 0=no damage to plant); for pest or weed control at 62.5 g/ha: 62.5 g ai/ha; for pest or weed control at 62.5 g/ha / pest or weed control at 250 g/ha: evaluated after 13 days, 100=total damage to plant, 0=no damage to plant; for pest or weed control at 250 g/ha: 250 g ai/ha
In short: (§2)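 Eight days post-sowing, plants received a spray of test compound (acetone/water 50:50, 0.5% Tween 20) at 15.625, 62.5 or 250 g/ha. Glasshouse regime thereafter: 24/16 °C, 14 h light, 65% humidity. Assessment after 13 days on a 0–100 damage scale.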

[8] = system: barnyardgrass (Echinochloa crus-galli); test: Test G Post-Emergence Protocol; settings: Echinochloa crus-galli, post-emergence, 312 h, read-out: Barnyardgrass damage rating; for pest or weed control at 15.625 g/ha: 15.625 g ai/ha, evaluated after 13 days (100=total damage to plant; 0=no damage to plant); for pest or weed control at 62.5 g/ha: 62.5 g ai/ha; for pest or weed control at 62.5 g/ha / pest or weed control at 250 g/ha: evaluated after 13 days, 100=total damage to plant, 0=no damage to plant; for pest or weed control at 250 g/ha: 250 g ai/ha
In short: as §2

[9] = system: velvetleaf (Abutilon theophrasti); test: Test G Post-Emergence Protocol; settings: Abutilon theophrasti, post-emergence, 312 h, read-out: Velvetleaf damage rating; for pest or weed control at 15.625 g/ha: 15.625 g ai/ha, evaluated after 13 days (100=total damage to plant; 0=no damage to plant); for pest or weed control at 62.5 g/ha: 62.5 g ai/ha; for pest or weed control at 62.5 g/ha / pest or weed control at 250 g/ha: evaluated after 13 days, 100=total damage to plant, 0=no damage to plant; for pest or weed control at 250 g/ha: 250 g ai/ha
In short: as §2

[10] = system: redroot pigweed (Amaranthus retroflexus); test: Test G Post-Emergence Protocol; settings: Amaranthus retroflexus, post-emergence, 312 h, read-out: Pigweed, Redroot damage rating; for pest or weed control at 15.625 g/ha: 15.625 g ai/ha, evaluated after 13 days (100=total damage to plant; 0=no damage to plant); for pest or weed control at 62.5 g/ha: 62.5 g ai/ha; for pest or weed control at 62.5 g/ha / pest or weed control at 250 g/ha: evaluated after 13 days, 100=total damage to plant, 0=no damage to plant; for pest or weed control at 250 g/ha: 250 g ai/ha
In short: as §2

corn (Zea mays) [11] = test: Test G Post-Emergence Protocol; settings: Zea mays, post-emergence, 312 h, read-out: Corn damage rating; for plant injury at 15.625 g/ha: 15.625 g ai/ha, evaluated after 13 days (100=total damage to plant; 0=no damage to plant); for plant injury at 62.5 g/ha: 62.5 g ai/ha; for plant injury at 62.5 g/ha / plant injury at 250 g/ha: evaluated after 13 days, 100=total damage to plant, 0=no damage to plant; for plant injury at 250 g/ha: 250 g ai/ha
In short: as §2

[12] = system: giant foxtail (Setaria faberi); test: Test G Post-Emergence Protocol; settings: Setaria faberi, post-emergence, 312 h, read-out: Foxtail, Giant damage rating; for pest or weed control at 15.625 g/ha: 15.625 g ai/ha, evaluated after 13 days (100=total damage to plant; 0=no damage to plant); for pest or weed control at 62.5 g/ha: 62.5 g ai/ha
In short: as §2

[13] = evaluated after 13 days, 100=total damage to plant, 0=no damage to plant

Structure (SMILES)	pest or weed control at 15.625 g/ha [1] [%]	pest or weed control at 62.5 g/ha [1] [%]	pest or weed control at 250 g/ha [1] [%]	pest or weed control at 15.625 g/ha [2] [%]	pest or weed control at 62.5 g/ha [2] [%]	pest or weed control at 250 g/ha [2] [%]	pest or weed control at 15.625 g/ha [3] [%]	pest or weed control at 62.5 g/ha [3] [%]	pest or weed control at 250 g/ha [3] [%]	pest or weed control at 15.625 g/ha [4] [%]	pest or weed control at 62.5 g/ha [4] [%]	pest or weed control at 250 g/ha [4] [%]	plant injury at 15.625 g/ha (corn (Zea mays) [5]) [%]	plant injury at 62.5 g/ha (corn (Zea mays) [5]) [%]	plant injury at 250 g/ha (corn (Zea mays) [5]) [%]	pest or weed control at 15.625 g/ha [6] [%]	pest or weed control at 62.5 g/ha [6] [%]	pest or weed control at 250 g/ha [6] [%]	pest or weed control at 15.625 g/ha [7] [%]	pest or weed control at 62.5 g/ha [7] [%]	other results
CN1C[C@@H](c2cccc(I)c2)[C@H](C(=O)Nc2cccc(F)c2F)C1=O (racemic) [Compound 1754]	0	0	10	60	80	90	10	0	30	10	20	60	0	0	80	80	90	90	30	70	pest or weed control at 250 g/ha [7]: 70%; pest or weed control at 15.625 g/ha [8]: 30%; pest or weed control at 62.5 g/ha [8]: 70%; pest or weed control at 250 g/ha [8]: 80%; pest or weed control at 15.625 g/ha [9]: 10%; pest or weed control at 62.5 g/ha [9]: 30%; pest or weed control at 250 g/ha [9]: 60%; pest or weed control at 15.625 g/ha [10]: 0%; pest or weed control at 62.5 g/ha [10]: 40%; pest or weed control at 250 g/ha [10]: 70%; plant injury at 15.625 g/ha (corn (Zea mays) [11]): 10%; plant injury at 62.5 g/ha (corn (Zea mays) [11]): 60%; plant injury at 250 g/ha (corn (Zea mays) [11]): 70%; pest or weed control at 15.625 g/ha [12]: 60%; pest or weed control at 62.5 g/ha [12, 13]: 80%
CN1C[C@H](c2cccc(C(F)(F)F)c2)[C@@H](C(=O)Nc2cnccc2C#N)C1=O (racemic) [Compound 1761]	0	0	0	0	30	70	0	0	0	0	0	0	0	0	0	0	40	70	0	40	pest or weed control at 250 g/ha [7]: 50%; pest or weed control at 15.625 g/ha [8]: 0%; pest or weed control at 62.5 g/ha [8]: 0%; pest or weed control at 250 g/ha [8]: 70%; pest or weed control at 15.625 g/ha [9]: 0%; pest or weed control at 62.5 g/ha [9]: 0%; pest or weed control at 250 g/ha [9]: 10%; pest or weed control at 15.625 g/ha [10]: 0%; pest or weed control at 62.5 g/ha [10]: 0%; pest or weed control at 250 g/ha [10]: 10%; plant injury at 15.625 g/ha (corn (Zea mays) [11]): 0%; plant injury at 62.5 g/ha (corn (Zea mays) [11]): 0%; plant injury at 250 g/ha (corn (Zea mays) [11]): 0%; pest or weed control at 15.625 g/ha [12]: 0%; pest or weed control at 62.5 g/ha [12, 13]: 0%; pest or weed control at 250 g/ha ([12]; 250 g ai/ha, evaluated after 13 days, 100=total damage to plant, 0=no damage to plant): 70%
